Results from patent US6723710B2, “Compositions for inhibiting arginase activity” (The Trustees of the University of Pennsylvania, priority 1997, dated 2004).

Target: T1, arginase (Rattus norvegicus, UniProt P07824)
T1 sequence (P07824 1-323): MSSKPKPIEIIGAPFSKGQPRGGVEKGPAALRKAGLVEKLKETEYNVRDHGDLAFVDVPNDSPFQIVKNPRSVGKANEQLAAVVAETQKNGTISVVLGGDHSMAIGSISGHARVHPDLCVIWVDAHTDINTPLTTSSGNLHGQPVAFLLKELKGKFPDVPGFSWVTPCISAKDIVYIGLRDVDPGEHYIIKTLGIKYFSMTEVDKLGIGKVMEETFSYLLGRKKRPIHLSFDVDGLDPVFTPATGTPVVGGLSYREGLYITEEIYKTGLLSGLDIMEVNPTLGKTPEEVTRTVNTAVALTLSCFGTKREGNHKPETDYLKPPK
Experiment: dialysis/dilution reversibility experiments with pre-incubated arginase-inhibitor complex
Format: biochemical
Set-up: made in house
Method: Dialysis experiments of arginase with the arginase-compound 7 and arginase-compound 15 complexes were performed in following way. Thirty microliters of arginase at a concentration of 11.2 milligrams per milliliter were pre-incubated for thirty minutes with an appropriate concentration of compound 7 (5 microliters of 100 micromolar stock solution). […] Pre-incubates were then added to bicine buffer containing 4 millimolar compound 18. The final volume of the assay reaction solution was 1 milliliter.

## N[C@@H](CCCCB(O)O)C(=O)O [compound 7, 2(S)-amino-6-boronohexanoic acid]
9.6 micromolar arginase, 0.5 micromolar ABHA
  inhibited velocity, control without pre-incubation: 0.47 micromolar per minute
30 minutes pre-incubation
  reversibility of inhibition: reversible inhibitor
30 minutes pre-incubation, diluted to 0.5 micromolar ABHA and 9.6 micromolar arginase
  observed inhibited velocity, diluted pre-incubate: 0.46 micromolar per minute
30 minutes pre-incubation, listed as ABHA
  reversibility of inhibition: completely instantaneous reversible inhibition
